Assay results: ChEMBL document CHEMBL5036365, “A Molecular Networking Based Discovery of Diketopiperazine Heterodimers and Aspergillicins from Aspergillus caelatus” (J Nat Prod, 2022)
Activity calls are given as the source filed them.

Legend:
HepG2 [1] = assay: Cytotoxicity against human HepG2 cells at 40 ug/ml treated for 72 hrs by MTT assay; type: functional, cell-based; conditions: dose 40.0 µg/ml
Botrytis cinerea [2] = assay: Antifungal activity against Botrytis cinerea B05.10 at 160 ug/ml incubated for 24 hrs by agar based assay; type: functional, organism-based; conditions: dose 160.0 µg/ml
Fusarium graminearum [3] = assay: Antifungal activity against Fusarium graminearum BRFM 1982 at 160 ug/ml incubated for 24 hrs by agar based assay; type: functional, organism-based; conditions: dose 160.0 µg/ml
Pyricularia grisea [4] = assay: Antifungal activity against Magnaporthe grisea CF-105765 at 160 ug/ml incubated for 24 hrs by agar based assay; type: functional, organism-based; conditions: dose 160.0 µg/ml
HepG2 [5] = assay: Cytotoxicity against human HepG2 cells at 25 ug/ml treated for 72 hrs by MTT assay; type: functional, cell-based; conditions: dose 25.0 µg/ml
Botrytis cinerea [6] = assay: Antifungal activity against Botrytis cinerea B05.10 at 100 ug/ml incubated for 24 hrs by agar based assay; type: functional, organism-based; conditions: dose 100.0 µg/ml
Fusarium graminearum [7] = assay: Antifungal activity against Fusarium graminearum BRFM 1982 at 100 ug/ml incubated for 24 hrs by agar based assay; type: functional, organism-based; conditions: dose 100.0 µg/ml
Pyricularia grisea [8] = assay: Antifungal activity against Magnaporthe grisea CF-105765 at 100 ug/ml incubated for 24 hrs by agar based assay; type: functional, organism-based; conditions: dose 100.0 µg/ml
HepG2 [9] = assay: Cytotoxicity against human HepG2 cells at 20 ug/ml treated for 72 hrs by MTT assay; type: functional, cell-based; conditions: dose 20.0 µg/ml
Botrytis cinerea [10] = assay: Antifungal activity against Botrytis cinerea B05.10 at 80 ug/ml incubated for 24 hrs by agar based assay; type: functional, organism-based; conditions: dose 80.0 µg/ml
Fusarium graminearum [11] = assay: Antifungal activity against Fusarium graminearum BRFM 1982 at 80 ug/ml incubated for 24 hrs by agar based assay; type: functional, organism-based; conditions: dose 80.0 µg/ml
Pyricularia grisea [12] = assay: Antifungal activity against Magnaporthe grisea CF-105765 at 80 ug/ml incubated for 24 hrs by agar based assay; type: functional, organism-based; conditions: dose 80.0 µg/ml
HepG2 [13] = assay: Cytotoxicity against human HepG2 cells at 12.5 ug/ml treated for 72 hrs by MTT assay; type: functional, cell-based; conditions: dose 12.5 µg/ml
Botrytis cinerea [14] = assay: Antifungal activity against Botrytis cinerea B05.10 at 50 ug/ml incubated for 24 hrs by agar based assay; type: functional, organism-based; conditions: dose 50.0 µg/ml
Fusarium graminearum [15] = assay: Antifungal activity against Fusarium graminearum BRFM 1982 at 50 ug/ml incubated for 24 hrs by agar based assay; type: functional, organism-based; conditions: dose 50.0 µg/ml
Pyricularia grisea [16] = assay: Antifungal activity against Magnaporthe grisea CF-105765 at 50 ug/ml incubated for 24 hrs by agar based assay; type: functional, organism-based; conditions: dose 50.0 µg/ml

Measured: Activity

CN1C(=O)[C@H](Cc2c[nH]c3ccc([C@]45C[C@H]6C(=O)N(C)[C@H](Cc7ccccc7)C(=O)N6[C@H]4Nc4ccccc45)cc23)NC(=O)[C@H]1Cc1ccccc1
inactive: HepG2 [1] | Botrytis cinerea [2] | Fusarium graminearum [3] | Pyricularia grisea [4]

CN1C(=O)[C@H](Cc2cn([C@@]34C[C@H]5C(=O)N(C)[C@H](Cc6ccccc6)C(=O)N5[C@@H]3Nc3ccccc34)c3ccccc23)NC(=O)[C@H]1Cc1ccccc1
inactive: HepG2 [5] | Botrytis cinerea [6] | Fusarium graminearum [7] | Pyricularia grisea [8]

CC[C@H](C)[C@H]1NC(=O)[C@@H](NC(C)=O)[C@@H](C)OC(=O)[C@H](C(C)C)NC(=O)[C@H](Cc2ccc(OC)cc2)N(C)C(=O)[C@@H]2CCCN2C(=O)[C@@H]2CCCN2C1=O
inactive: HepG2 [1] | Botrytis cinerea [2] | Fusarium graminearum [3] | Pyricularia grisea [4]

CN1C(=O)[C@H](Cc2cn([C@@]34C[C@H]5C(=O)N(C)[C@H](Cc6ccccc6)C(=O)N5[C@@H]3N(C=O)c3ccccc34)c3ccccc23)NC(=O)[C@H]1Cc1ccccc1
inactive: HepG2 [1] | Botrytis cinerea [2] | Fusarium graminearum [3] | Pyricularia grisea [4]

COc1ccc(C[C@H]2C(=O)N[C@@H](C(C)C)C(=O)O[C@H](C)[C@H](NC(C)=O)C(=O)N[C@H](C(C)C)C(=O)N3CCC[C@H]3C(=O)N3CCC[C@H]3C(=O)N2C)cc1
inactive: HepG2 [1] | Botrytis cinerea [2] | Fusarium graminearum [3] | Pyricularia grisea [4]

CC[C@H](C)[C@H]1NC(=O)[C@@H](NC(C)=O)[C@@H](C)OC(=O)[C@H](C(C)C)NC(=O)[C@H](Cc2ccccc2)N(C)C(=O)[C@@H]2CCCN2C(=O)[C@@H]2CCCN2C1=O
inactive: HepG2 [9] | Botrytis cinerea [10] | Fusarium graminearum [11] | Pyricularia grisea [12]

CN1C(=O)[C@H](Cc2c[nH]c3cc([C@@]45C[C@H]6C(=O)N(C)[C@H](Cc7ccccc7)C(=O)N6[C@@H]4Nc4ccccc45)ccc23)NC(=O)[C@H]1Cc1ccccc1
inactive: HepG2 [13] | Botrytis cinerea [14] | Fusarium graminearum [15] | Pyricularia grisea [16]

CN1C(=O)[C@H](Cc2c[nH]c3cc([C@@]45C[C@H]6C(=O)N(C)[C@H](Cc7ccccc7)C(=O)N6[C@@H]4N(C=O)c4ccccc45)ccc23)NC(=O)[C@H]1Cc1ccccc1
inactive: HepG2 [1] | Botrytis cinerea [2] | Fusarium graminearum [3] | Pyricularia grisea [4]
